Reference: PubChem BioAssay (NCI)
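Compound exposure: 48 hours, 5 concentrations, 96-well plates. Abbreviation: GI50, concentration required for 50% inhibition of growth. TGI denotes the concentration required for complete inhibition of growth.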

Legend:
Assay in all cases: NCI anticancer screen, dose series, 48 h
[1] = test system: SN12C renal
[2] = test system: UACC-62 melanoma
[3] = test system: T-47D breast
[4] = test system: K-562 leukemia
[5] = test system: PC-3 prostate
[6] = test system: HS 578T breast
[7] = test system: NCI-H226 lung
[8] = test system: DU-145 prostate
[9] = test system: MDA-MB-435
[10] = test system: KM12 colon
[11] = test system: HCC-2998 colon
[12] = test system: SK-MEL-2 melanoma
[13] = test system: NCI-H522 lung
[14] = test system: HCT-15 colon
[15] = test system: SF-295 CNS
[16] = test system: MCF7 breast
[17] = test system: RPMI-8226 leukemia
[18] = test system: SF-268 CNS
[19] = test system: COLO 205 colon
[20] = test system: SNB-19 CNS
[21] = test system: A549 NSCLC
[22] = test system: SK-MEL-5 melanoma
[23] = test system: CAKI-1 renal
[24] = test system: RXF 393 renal
[25] = test system: ACHN renal
[26] = test system: OVCAR-8 ovarian
[27] = test system: SK-OV-3 ovarian
[28] = test system: A498 renal
[29] = test system: 786-0 renal

How did the GI50 [1] turn out when `COc1ccc(N=Nc2ccc(O)c(=O)cc2)cc1` was run?
Its GI50 is 2.82 µM.

What about the TGI [1] of the same compound?
Its TGI is > 100 µM.

What about the GI50 [2] of the same compound?
The GI50 was 2.11 µM.

And the TGI [2]?
Its TGI is 5.12 µM.

And the GI50 [3]?
Its GI50 is 2.64 µM.

What about the TGI [3] of the same compound?
The TGI was > 100 µM.

What about the GI50 [4] of the same compound?
Its GI50 is 3.69 µM.

What about the TGI [4] of the same compound?
The TGI was > 100 µM.

What about the GI50 [5] of the same compound?
Its GI50 is 4.82 µM.

What about the TGI [5] of the same compound?
Its TGI is > 100 µM.

And the GI50 [6]?
Its GI50 is 4.41 µM.

What about the TGI [6] of the same compound?
Its TGI is > 100 µM.

And the GI50 [7]?
Its GI50 is 3.73 µM.

And the TGI [7]?
Its TGI is > 100 µM.

And the GI50 [8]?
The GI50 was 4.07 µM.

And the TGI [8]?
Its TGI is > 100 µM.

What about the GI50 [9] of the same compound?
Its GI50 is 4.02 µM.

What about the TGI [9] of the same compound?
Its TGI is > 100 µM.

And the GI50 [10]?
The GI50 was 3.66 µM.

What about the TGI [10] of the same compound?
The TGI was > 100 µM.

What about the GI50 [11] of the same compound?
Its GI50 is 4.04 µM.

What about the TGI [11] of the same compound?
Its TGI is > 100 µM.

What about the GI50 [12] of the same compound?
The GI50 was 5.01 µM.

What about the TGI [12] of the same compound?
Its TGI is 41.1 µM.

What about the GI50 [13] of the same compound?
The GI50 was 2.88 µM.

What about the TGI [13] of the same compound?
Its TGI is 13.4 µM.

What about the GI50 [14] of the same compound?
Its GI50 is 2.55 µM.

What about the TGI [14] of the same compound?
The TGI was > 100 µM.

What about the GI50 [15] of the same compound?
Its GI50 is 3.79 µM.

What about the TGI [15] of the same compound?
Its TGI is > 100 µM.

And the GI50 [16]?
Its GI50 is 3.4 µM.

And the TGI [16]?
The TGI was > 100 µM.

And the GI50 [17]?
The GI50 was 2.68 µM.

What about the TGI [17] of the same compound?
The TGI was 43.7 µM.

What about the GI50 [18] of the same compound?
The GI50 was 3.62 µM.

And the TGI [18]?
The TGI was > 100 µM.

And the GI50 [19]?
Its GI50 is 7.07 µM.

What about the TGI [19] of the same compound?
The TGI was > 100 µM.

What about the GI50 [20] of the same compound?
The GI50 was 2.92 µM.

What about the TGI [20] of the same compound?
Its TGI is 51.6 µM.

And the GI50 [21]?
Its GI50 is 3.02 µM.

And the TGI [21]?
Its TGI is > 100 µM.

And the GI50 [22]?
Its GI50 is 3.34 µM.

And the TGI [22]?
Its TGI is 16.2 µM.

What about the GI50 [23] of the same compound?
Its GI50 is 3.77 µM.

And the TGI [23]?
The TGI was > 100 µM.

And the GI50 [24]?
The GI50 was 3.71 µM.

And the TGI [24]?
Its TGI is > 100 µM.

What about the GI50 [25] of the same compound?
Its GI50 is 3.37 µM.

What about the TGI [25] of the same compound?
Its TGI is > 100 µM.

And the GI50 [26]?
Its GI50 is 2.88 µM.

What about the TGI [26] of the same compound?
The TGI was > 100 µM.

What about the GI50 [27] of the same compound?
The GI50 was 4.58 µM.

What about the TGI [27] of the same compound?
The TGI was > 100 µM.

And the GI50 [28]?
Its GI50 is 24.1 µM.

And the TGI [28]?
The TGI was > 100 µM.

And the GI50 [29]?
The GI50 was 3.07 µM.
